Data reported in patent US20210379077A1, “TOPOISOMERASE II CATALYTIC INHIBITOR COMPOUND THERAPEUTICS FOR CANCER TREATMENT, METHODS AND USES” (The University of British Columbia, priority 2018, published 2021).

Columns and labels:
K562 cells = assay: γH2AX Western blot (DNA damage in cells); assay type: cell-based; settings: 10-20 μM, 4 hours, listed as Top60
Method: Cytotoxicity was evaluated by measuring LDH levels from cell culture media; (b) K562 cells were treated with either vehicle or 10-20 μM of Top60, Etoposide and ICRF187 for 4 hours. Whole cell lyses were collected to measure γH2AX levels with vinculin as the loading control; (c) K562 cells were treated with 0, 1, 5, 10, 15 and 20 μM of Top60, 20 μM Etoposide or 20 uM ICRF187 for 48 hours. Cell proliferation rates were determined by MTS assays; and (d) K562 cells were treated with 20 μM of Top60, Etoposide or ICRF187 for 0, 24, 48 and 72 hours. Cell proliferation rates were measured by MTS assays. All results were collected from three independent experiments.
Top60 is a catalytic inhibitor of Topo II To verify that our lead Compound 60(Top60), the formation of ds DNA breaks was assayed both in and outside of cells. To assess whether Top60 causes double stranded DNA breaks outside cells, supercoiled plasmid was incubated with and without Top60 in the presence of Topo II (FIG. 1d). […] Furthermore, H2AXγ protein expression was assessed by Western blot to determine if the lead compound could cause DNA damage in cells, and compared to Etoposide as a control (FIG. 3b). […] To determine if Top60 was capable of intercalating DNA, it was incubated with relaxed plasmid at increasing concentrations and compared with m-AMSA, a known intercalator. […]

Hela cells = assay: Confocal microscopy of nuclei size; assay type: cell-based; settings: 20 μM, 48 hours, DAPI staining
Method: BrdU incorporation rates were determined by Millipore™ BrdU incorporation kit (CAT #2750). (b-c) Hela cells were treated with vehicle or 20 μM of Top60 for 48 hours. Cells were then stained with APC-BrdU and 7-AAD for 4 hours, and subjected to FACS assays to determine cell populations at Sub G0/G1, G0/G1, S, and G2/M phases. Results were collected from three independent experiments, (d-e) Hela cells were treated with either vehicle or 20 μM T60 for 48 hours. Cells were fixed and co-stained with DAPI and phalloidin, and examined by confocal microscopy. Fifty cells were chosen from five high power fields to analyze nuclei sizes by the Image J software. Representative bright field microscopic images were also shown. Scale bar=50 μm.
Confocal microscopy—Cells were fixed with 4% paraformaldehyde, treated in 0.25% Triton X-100 for 15 mins, incubated with F-actin conjugated to Phalloidin-iFluor 488™ (Abeam™; Cambridge, UK), and mounted with DAPI staining mount (Vector Labs™; Burlingame, Calif., USA). Cells were then imaged by confocal microscopy at 63× magnification (Zeiss LSM 780™; Carl Zeiss AG™; Oberkochen, Germany).

Cancer Cell = assay: Cancer cell growth inhibition; assay type: cell-based; design: key: Y is an indication that activity was found
Method: BrDU incorporation and cell proliferation assays—Cell proliferation rates were measured by using the CellTitre™ 96 AqueousOne™ kit (Promega™) and bromodeoxyuridine (BrdU) assay kit (Millipore™) according to the manufacturer's protocol, with minor modifications as we have previously described by Li H. et al.^19

[1] = tested on: Etoposide-resistant K562 cell line; assay: MTS cell proliferation assay in Etoposide-resistant cells; assay type: cell-based; settings: 0-20 μM, 48 hours; cells with downregulated Topo II
Method: Whole cell lyses were collected and used to measure protein levels of TOP2α, TOP2β with β-Actin as a loading control; (b) K562 cells were treated with 0, 1, and 10 μM of Top60 for 24 hours. Protein lyses were collected from soluble nuclear extract, chromatin fraction or whole cell lysate. TOP2α and TOP2β protein levels were determined by immunoblotting with Lamin A/C, Histone H3 and β-Actin as loading controls; and (c) Etoposide-resistant K562 cell line was established by treating cells with 0.5 μM of Etoposide for 6 months. TOP2α, TOP2β, and β-actin protein levels were determined by immunoblotting. Etoposide-resistant K562 cells were treated with 0, 1, 10, 15 and 20 μM of Top60, Etoposide or ICRF187 for 48 hours. Cell proliferation rates were determined by MTS assays.
In order to asses binding of the lead compound to Topo II, a thermal shift assay was performed. […] It was observed that Topo IIα was stabilized up to 43° C. in the presence of the lead compound (FIG. 4A). Furthermore, cellular fractionation was performed to assess localized changes in Topo II in response to compound treatment. As Topo IIα is important for decatenating DNA during cellular replication, it is expected to be chromatin bound. […] To further verily that Topo II is the only observable target of Top60, Etoposide resistant cell lines were bred. […]

Topo IIα = Topo IIα (Homo sapiens, UniProt P11388); assay: DNA cleavage assay (linear DNA formation); assay type: biochemical; design: purchased TopoGENE (TopoGEN) TG2000H; settings: supercoiled plasmid with Topo II, 50 μM
Method: DNA samples were separated by electrophoresis on 0.8% agarose gels and visualized by ethium bromide staining. The positions of K-DNA and decatenated (D) DNA products are marked by arrows. Experiments were repeated five times and the densitometry of the D bands were used to establish an inhibition curve to calculate IC50. (b) Supercoiled pHOT™ plasmid was incubated with human TOP2a in the presence of 50 μM Etopside, 50 uM ICRF193 or 0-50 μM of compound #60 (Top60) compound at 37° C. for 1 hour. DNA products were separated by electrophoresis on 1% agarose gels and visualized by ethium bromide staining. The positions of supercoiled (SC), nicked (N), and relaxed (R) DNA bands are marked by arrows. Experiments were repeated five times and the densitometiy of the SC bands were used to establish an inhibition curve to calculate IC50. (c) Supercoiled pHOT™ plasmid was incubated with Topoisomerase I prior to addition of either mAMSA or compound #60 (Top60) at concentrations of 0, 5, 10, 25 and 50 μM at 37° C. for 30 minutes. […]
Top60 is a catalytic inhibitor of Topo II To verify that our lead Compound 60(Top60), the formation of ds DNA breaks was assayed both in and outside of cells. […] Furthermore, H2AXγ protein expression was assessed by Western blot to determine if the lead compound could cause DNA damage in cells, and compared to Etoposide as a control (FIG. 3b). […]

Topo IIα, sequence (P11388 whole entry): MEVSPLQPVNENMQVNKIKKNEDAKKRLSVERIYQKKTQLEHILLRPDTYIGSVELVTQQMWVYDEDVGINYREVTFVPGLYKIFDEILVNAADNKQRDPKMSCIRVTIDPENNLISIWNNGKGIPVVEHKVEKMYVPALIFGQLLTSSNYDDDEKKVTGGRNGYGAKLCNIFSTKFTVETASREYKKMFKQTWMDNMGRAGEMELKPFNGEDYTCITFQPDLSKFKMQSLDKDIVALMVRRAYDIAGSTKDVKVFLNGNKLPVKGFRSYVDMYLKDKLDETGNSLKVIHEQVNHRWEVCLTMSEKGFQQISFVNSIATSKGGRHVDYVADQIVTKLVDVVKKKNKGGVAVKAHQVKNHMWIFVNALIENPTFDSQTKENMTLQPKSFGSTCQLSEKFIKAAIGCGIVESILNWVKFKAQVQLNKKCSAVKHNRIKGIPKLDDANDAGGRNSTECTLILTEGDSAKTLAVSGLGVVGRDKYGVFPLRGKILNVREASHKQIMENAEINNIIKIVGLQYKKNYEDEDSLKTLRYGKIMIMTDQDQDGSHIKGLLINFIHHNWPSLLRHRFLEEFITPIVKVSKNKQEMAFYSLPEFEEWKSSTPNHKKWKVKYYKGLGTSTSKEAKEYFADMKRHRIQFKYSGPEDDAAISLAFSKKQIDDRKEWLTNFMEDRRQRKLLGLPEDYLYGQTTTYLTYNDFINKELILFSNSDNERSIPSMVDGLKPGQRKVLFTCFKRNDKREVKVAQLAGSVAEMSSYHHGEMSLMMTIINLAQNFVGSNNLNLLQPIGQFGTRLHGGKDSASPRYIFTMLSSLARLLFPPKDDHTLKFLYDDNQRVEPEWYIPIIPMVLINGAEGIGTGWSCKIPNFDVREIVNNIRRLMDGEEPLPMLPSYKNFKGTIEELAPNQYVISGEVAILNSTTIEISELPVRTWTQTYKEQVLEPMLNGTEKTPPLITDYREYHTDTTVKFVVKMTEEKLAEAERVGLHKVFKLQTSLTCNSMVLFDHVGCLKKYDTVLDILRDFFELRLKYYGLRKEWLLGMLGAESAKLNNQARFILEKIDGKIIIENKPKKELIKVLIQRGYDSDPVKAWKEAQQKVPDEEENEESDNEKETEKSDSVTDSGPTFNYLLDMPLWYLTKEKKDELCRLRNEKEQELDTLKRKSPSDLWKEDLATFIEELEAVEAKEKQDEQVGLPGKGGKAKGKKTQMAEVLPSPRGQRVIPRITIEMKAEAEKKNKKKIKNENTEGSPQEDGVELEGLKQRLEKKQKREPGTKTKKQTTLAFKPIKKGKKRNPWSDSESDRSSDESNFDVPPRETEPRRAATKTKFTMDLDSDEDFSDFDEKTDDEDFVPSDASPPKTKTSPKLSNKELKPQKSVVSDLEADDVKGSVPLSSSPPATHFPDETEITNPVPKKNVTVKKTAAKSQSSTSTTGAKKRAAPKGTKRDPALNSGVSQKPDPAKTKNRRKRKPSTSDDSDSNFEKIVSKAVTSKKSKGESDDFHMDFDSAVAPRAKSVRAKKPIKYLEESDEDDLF

For `O=C(Nc1ccc(Nc2ccccc2)cc1)c1ccc[nH]c1=S` [Compound 60], the “DNA damage in cells by H2AXγ protein level” value (K562 cells) was “do not cause DNA damage”, the nuclei size (Hela cells) was “enlarged nuclei” and the “Cancer Cell Growth Inhib.” value (Cancer Cell) was “Y”. For the same compound, the “inhibitory effects on Etoposide resistant cells” value [1] was “dramatically reduced”, the “formation of linear DNA (double stranded DNA breaks, poison activity)” value (Topo IIα) was “no linear DNA is formed” and the “formation of linear DNA (double stranded DNA breaks, poison activity)” value (Topo IIα; listed as Top60) was “almost no band corresponding to linear DNA is formed”.
